Kd data for two compounds are collected here from publication PMC12087296 (Microbial Biotechnology, 2025).

Where two headings read alike, the source gives them in different places.

Test [1] concerns the target T1, TlpQ (Pseudomonas aeruginosa, UniProt Q9I0I4). The test can be described thus: isothermal titration calorimetry, […]°C. It is filed as binding.
For test [2], the target named is T1, TlpQ. Briefly: isothermal titration calorimetry, […]°C. It counts as binding. The source holds these as a separate data set. (In general: Isothermal titration calorimetry measures the heat released or taken up as one component is titrated into another.)

T1 sequence (Q9I0I4 33-363 limits assumed): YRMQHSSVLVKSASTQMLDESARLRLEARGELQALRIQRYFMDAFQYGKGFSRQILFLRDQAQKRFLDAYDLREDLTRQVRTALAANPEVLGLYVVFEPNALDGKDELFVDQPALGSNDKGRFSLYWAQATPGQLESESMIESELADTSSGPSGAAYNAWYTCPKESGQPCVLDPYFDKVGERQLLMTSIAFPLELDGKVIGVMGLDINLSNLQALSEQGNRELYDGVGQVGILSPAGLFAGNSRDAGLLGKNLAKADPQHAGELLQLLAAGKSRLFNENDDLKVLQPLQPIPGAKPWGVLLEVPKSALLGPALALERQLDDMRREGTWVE

In general, Kd refers to the constant that tells how readily two partners part at equilibrium. For the compound `CNC[C@H](O)c1ccc(O)c(O)c1` [epinephrine], on TlpQ [1], the Kd came out at 363 µM. As to `NCCc1ccc(O)c(O)c1` [dopamine], the Kd at TlpQ [2] turned out to be 137 µM.
